Measured values published in patent US20220054494A1, “METHODS FOR TREATING BLADDER AND URETHRA DYSFUNCTION AND DISEASE” (University of Pittsburgh - Of the Commonwealth System of …, priority 2019, published 2022).
Entries after “also recorded” stand apart in the source; their conditions may differ.

Key:
Type in all cases: in vivo, rat
bladder wall = test: Bladder volume measurements (bladder wall volume / thickness)
Description: Bladder volume measurements: Changes in bladder wall thickness in all groups (young, aged, and aged+treatment) were measured by placing displacement markers on the bladder surface (in situ) while volume measurements were recorded. Custom computer algorithms were used to calculate longitudinal, circumferential, and area strain from measurements of surface marker positions.

α-SMA = test: Western immunoblotting, α-SMA; conditions: aged rats; oral 8-AG 5 mg/kg/day, 6 weeks
Description: Western immunoblotting: Following the testing paradigms, rats were deeply anesthetized, bladders as well as the proximal urethra were removed, and one half of each preparation was homogenized using Lysing Matrix D in a FastPrep 24 instrument (MP Biomedicals, Solon, Ohio) in HBSS [5 mM KCl, 0.3 mM KH2PO4, 138 mM NaCl, 4 mM NaHO3, 0.3 mM Na2HCO3, 0.3 mM Na2HPO4, 5.6 mM glucose, and 10 mM Hepes, pH 7.4 containing a complete protease inhibitor cocktail (1 tablet/10 ml, ROCHE®, Indianapolis, Ind.) and a phosphatase inhibitor cocktail (SIGMA®, 1:100)]. After centrifugation (13000 rpm; 15 min at 4° C.), the membrane protein fraction was prepared by suspending the membrane pellets in lysis buffer containing 0.3 M NaCl, 50 mM Tris-HCl (pH 7.6), and 0.5% Triton X-100 and the same concentration of protease inhibitors as above. The suspensions were incubated on ice and centrifuged (13000 rpm; 15 min at 4° C.). The protein concentrations of the combined supernatants were determined using the PIERCE® BCA protein assay (THERMO SCIENTIFIC®, Rockford, Ill.). […] As a loading control, total protein per sample was determined using Bio-Rad Stain Free SDS-PAGE gel technology. UV-activated protein fluorescence was imaged on a CHEMIDOC® MP (BIO-RAD®). […] The volume (intensity) of each protein species was determined and normalized to total protein using Image Lab software (BIO-RAD®). […]

catalase = test: Catalase activity in detrusor smooth muscle; conditions: aged rats; oral 8-AG 5 mg/kg/day, 6 weeks

Nc1nc2[nH]c(N)nc2c(=O)[nH]1 [8-AG, 8-Aminoguanine]
bladder wall volume (bladder wall; aged Fisher 344 rats, 8-AG 5 mg kg/day via drinking water, 1 month): restored to that of a younger state
bladder wall width / thickness (bladder wall; aged rats, oral 8-AG 5 mg/kg/day, 6 weeks): restored to that of a younger state
α-SMA expression in detrusor (α-SMA): increasing expression toward younger state; also recorded: normalized; also recorded: restored these biomarkers to that of a younger state
α-SMA expression in urethra (α-SMA): increasing expression toward younger state; also recorded: normalized to a younger state
catalase activity in detrusor smooth muscle (catalase): levels similar to the younger state; also recorded: restored these biomarkers to that of a younger state
